Some test systems named below: TK-10; HL-60; SNB-19; CCRF-CEM; HCC 2998; MOLT-4; Malme-3M; NCI-H460; 786-0; HCT-15; NCI/ADR-RES; SF-295; SNB-75; MCF7; LOX IMVI; SF-539; KM12; SK-MEL-5; M14; HOP-92.
Assay in all cases: NCI anticancer screen, dose series, 48 h

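Five compound concentrations were applied to cells in 96-well plates for 48 hours; endpoints were derived by simple linear interpolation of the resulting dose-response curve. GI50: concentration for 50% inhibition of growth.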 Active and inactive are the calls of the source. Rule as the data show it: active = GI50 up to about 1.1 µM and inactive = higher.

`CO/C(=N\N=C\c1cc(OC)ccc1OC)c1ccncc1`: the GI50 in the assay on TK-10, in the assay with HL-60, in the assay on SNB-19, in the assay with CCRF-CEM, in the assay with HCC 2998 and in the assay with MOLT-4 was > 10 µM (inactive) each time. For the same compound, the GI50 in the assay with Malme-3M is > 10 µM (inactive); in the assay on NCI-H460 it was > 10 µM (inactive); in the assay on 786-0 it was > 10 µM (inactive); with HCT-15, greater than 10 µM; in the assay on NCI/ADR-RES it was > 10 µM (inactive); in the assay with SF-295, > 10 µM (inactive). For the same compound, the GI50 in the assay with SNB-75 was 3.68 µM (inactive); with MCF7, > 10 µM (inactive); in the assay on LOX IMVI it was > 10 µM (inactive); in the assay on SF-539, > 10 µM (inactive); with KM12, > 10 µM (inactive); with SK-MEL-5 it was > 10 µM (inactive).
For `O=C(C/N=C(\CN(c1ccccc1)c1ccccc1)Oc1ccc(Cl)cc1Cl)n1ccnc1`, the GI50 in the assay with TK-10, in the assay with M14, with SNB-19, with CCRF-CEM, in the assay with MOLT-4 and in the assay on Malme-3M was > 100 µM (inactive) in each case. Besides, the GI50 in the assay on NCI-H460 is > 100 µM (inactive); in the assay with 786-0, > 100 µM (inactive); in the assay on HCT-15, greater than 100 µM; with NCI/ADR-RES it was > 100 µM (inactive); in the assay with SF-295, > 100 µM (inactive); in the assay with SNB-75 it was > 100 µM (inactive). Moreover, the GI50 in the assay with MCF7 was > 100 µM (inactive); in the assay on LOX IMVI, > 100 µM (inactive); in the assay on SF-539, > 100 µM (inactive); in the assay on KM12, > 100 µM (inactive); in the assay with HOP-92, 63 µM (inactive); in the assay with SK-MEL-5 it was > 100 µM (inactive).
Regarding `COc1ccc(Nc2nc3c([nH]2)c(=O)n(C)c(=O)n3C)cc1`, the GI50 in the assay on TK-10, with HL-60, with M14, with CCRF-CEM, in the assay on HCC 2998 and in the assay on MOLT-4 was > 10 µM (inactive) throughout. Besides, the GI50 was > 10 µM (inactive) with Malme-3M; > 10 µM (inactive) in the assay on 786-0; greater than 10 µM with HCT-15; > 10 µM (inactive) in the assay on SF-295; > 10 µM (inactive) with SNB-75; > 10 µM (inactive) in the assay with MCF7. Moreover, the GI50 in the assay on LOX IMVI, with KM12, with HOP-92 and with SK-MEL-5 was > 10 µM (inactive) in each case.
For `CC(C)(Cc1ccccc1)N1C(=O)N1C(C)(C)Cc1ccccc1`, the GI50 in the assay with TK-10 was > 100 µM (inactive); in the assay on HL-60 it was 4.78 µM (inactive); in the assay on M14, 34.8 µM (inactive); in the assay on SNB-19, > 100 µM (inactive); in the assay with CCRF-CEM, 20.8 µM (inactive); in the assay with HCC 2998, > 100 µM (inactive). The GI50 is 18.7 µM (inactive) with MOLT-4; 23.4 µM (inactive) with Malme-3M; > 100 µM (inactive) with NCI-H460; 21.6 µM (inactive) in the assay on 786-0; 21.4 µM in the assay with HCT-15; > 100 µM (inactive) in the assay with NCI/ADR-RES. The GI50 is 32.5 µM (inactive) with SNB-75; 31.5 µM (inactive) with MCF7; 17.7 µM (inactive) in the assay on LOX IMVI; 33.3 µM (inactive) in the assay on SF-539; > 100 µM (inactive) in the assay on KM12; 14.1 µM (inactive) in the assay on SK-MEL-5.
In the case of `COC(=O)CSc1[nH]c2nc(C)nc(Nc3ccccc3)c2c1C#N`, the GI50 with TK-10, in the assay on HL-60, with M14, with CCRF-CEM, in the assay with HCC 2998 and in the assay with MOLT-4 was > 10 µM (inactive) in each case. Further, the GI50 was > 10 µM (inactive) in the assay on Malme-3M; > 10 µM (inactive) with 786-0; greater than 10 µM in the assay on HCT-15; > 10 µM (inactive) with SF-295; > 10 µM (inactive) in the assay with SNB-75; > 10 µM (inactive) in the assay with MCF7. For the same compound, the GI50 was > 10 µM (inactive) in the assay on LOX IMVI, > 10 µM (inactive) in the assay on KM12, 9.42 µM (inactive) in the assay on HOP-92 and > 10 µM (inactive) in the assay on SK-MEL-5.
On to `COC(=O)C1=C(OC(=O)/C(=C/c2ccccc2)c2ccc(OC)cc2)C(C(=O)OC)[C@@]2(O)[C@@H](C(=O)OC)[C@H](C)C[C@@H]1[C@@H]2C(=O)OC` (stereo partly specified), for which the GI50 in the assay with TK-10 is > 100 µM (inactive); in the assay on HL-60, > 100 µM (inactive); in the assay with M14, > 100 µM (inactive); in the assay on SNB-19 it was 32.4 µM (inactive); in the assay on CCRF-CEM it was > 100 µM (inactive); in the assay with HCC 2998, > 100 µM (inactive). Also, the GI50 with MOLT-4 was > 100 µM (inactive); with Malme-3M, > 100 µM (inactive); in the assay on NCI-H460 it was > 100 µM (inactive); in the assay on 786-0, 26.1 µM (inactive); in the assay on HCT-15 it was greater than 100 µM; in the assay on NCI/ADR-RES it was > 100 µM (inactive). The GI50 in the assay on SF-295 is > 100 µM (inactive); with SNB-75, 24.2 µM (inactive); in the assay with MCF7, > 100 µM (inactive); in the assay on LOX IMVI it was > 100 µM (inactive); in the assay on SF-539 it was > 100 µM (inactive); with KM12, > 100 µM (inactive). In addition, in the assay with SK-MEL-5, the GI50 was > 100 µM (inactive).
Turning to `CN(C)CCCNC(=O)N/N=C/c1ccc(O)cc1`, the GI50 in the assay with TK-10, in the assay with HL-60, with M14, in the assay with SNB-19, in the assay with CCRF-CEM and in the assay on HCC 2998 was > 100 µM (inactive) each time. Besides, the GI50 was > 100 µM (inactive) with MOLT-4; > 100 µM (inactive) with Malme-3M; > 100 µM (inactive) in the assay on NCI-H460; > 100 µM (inactive) in the assay on 786-0; greater than 100 µM with HCT-15; > 100 µM (inactive) with NCI/ADR-RES. The GI50 in the assay with SF-295 was > 100 µM (inactive); in the assay with SNB-75, 59.2 µM (inactive); with MCF7 it was > 100 µM (inactive); with SF-539, > 100 µM (inactive); in the assay with KM12, > 100 µM (inactive); in the assay with SK-MEL-5 it was > 100 µM (inactive).
In the case of `CC(/C=C/c1ccccc1)=N\NC(=S)N/N=C(C)/C=C/c1ccccc1`, the GI50 in the assay with TK-10 is 20.5 µM (inactive); in the assay on HL-60, 8.67 µM (inactive); in the assay on M14, 17.2 µM (inactive); in the assay on SNB-19, 23.2 µM (inactive); with CCRF-CEM, 6.38 µM (inactive); in the assay with HCC 2998, 20.9 µM (inactive). In addition, the GI50 is 5.93 µM (inactive) with MOLT-4; 10 µM (inactive) in the assay with Malme-3M; 5.11 µM (inactive) in the assay with NCI-H460; 11 µM (inactive) in the assay with 786-0; 12.7 µM in the assay on HCT-15; 16.1 µM (inactive) with NCI/ADR-RES. In addition, the GI50 with SF-295 was 20.7 µM (inactive); in the assay on SNB-75, 22.5 µM (inactive); in the assay with MCF7 it was 6.46 µM (inactive); in the assay on LOX IMVI, 11 µM (inactive); with SF-539 it was 21.1 µM (inactive); in the assay with SK-MEL-5, 13.8 µM (inactive).

Values taken from ChEMBL document CHEMBL1201862, “PubChem BioAssay data set” (2004).
